A word on the DC50: it is the concentration at which degradation of the target reaches its halfway point.

In patent US20260028354A1, “TETRAHYDRONAPHTHALENE DERIVATIVES AS ESTROGEN RECEPTOR DEGRADERS” (REGENT OF THE UNIVERSITY OF MICHIGAN, priority 2022, published 2026) one finds DC50 data, which are given here for 18 compounds.

The assay can be described thus: Western blot analysis for "B" compounds. It is filed as cell-based. The settings on record: read-out: Traditional Western Degradation Potency (DC50). In short, it runs like this:
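Target protein levels given as relative mean band intensity over GAPDH from scanned immunoblots. Lysates of treated cells in RIPA buffer, equalized by BCA, separated on 10% gels and transferred to PVDF.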
Background: In western blotting, separated proteins are transferred to a membrane and probed.

Turning to `O=C1CCC(N2C(=O)c3cc4c(cc3C2=O)CN(CC2CN(C(=O)C3CN(c5ccc([C@@H]6c7ccc(O)cc7CC[C@@H]6c6ccccc6)cc5)C3)C2)C4)C(=O)N1` (stereo partly drawn) [Compound B37, 2-(2,6-dioxopiperidin-3-yl)-6-((1-(1-(4-((1R,2S)-6-hydroxy-2-phenyl-1,2,3,4-tetrahydronaphthalen-1-yl)phenyl)azetidine-3-carbonyl)azetidin-3-yl)methyl)-6,7-dihydropyrrolo[3,4-f]isoindole-1,3(2H,5H)-dione], the DC50 is greater than 100 nM.
Take `O=C1CCC(N2C(=O)c3cc4c(cc3C2=O)CN(CC2CCN(C(=O)C3(F)CCN(c5ccc([C@@H]6c7ccc(O)cc7CC[C@@H]6c6ccccc6)cc5)CC3)CC2)C4)C(=O)N1` (stereo partly drawn) [Compound B269, 2-(2,6-dioxopiperidin-3-yl)-6-((1-(4-fluoro-1-(4-((1R,2S)-6-hydroxy-2-phenyl-1,2,3,4-tetrahydronaphthalen-1-yl)phenyl)piperidine-4-carbonyl)piperidin-4-yl)methyl)-6,7-dihydropyrrolo[3,4-f]isoindole-1,3(2H,5H)-dione]: the DC50 is greater than 100 nM.
`O=C1CCC(N2Cc3c(ccc4c3OC[C@H]3CN(CC5CCN(c6ccc([C@@H]7c8ccc(O)cc8CC[C@@H]7c7ccccc7)cc6)CC5)CCN43)C2=O)C(=O)N1` (stereo partly drawn) [Compound B298, 3-((R)-7-((1-(4-((1R,2S)-6-hydroxy-2-phenyl-1,2,3,4-tetrahydronaphthalen-1-yl)phenyl)piperidin-4-yl)methyl)-1-oxo-1,3,5,5a,6,7,8,9-octahydro-2H-pyrazino[1′,2′:4,5][1,4]oxazino[2,3-e]isoindol-2-yl)piperidine-2,6-dione]: the DC50 was in the range of 10 to 100 nM.
The same measure for `O=C1CCC(N2Cc3cc4c(cc3C2=O)CN(C(=O)C2CCC(N3CC(Oc5ccc([C@@H]6c7ccc(O)cc7CC[C@@H]6c6ccccc6)cc5)C3)CC2)C4)C(=O)N1` (stereo partly drawn) [Compound B106, 3-(6-((1R,4r)-4-(3-(4-((1R,2S)-6-hydroxy-2-phenyl-1,2,3,4-tetrahydronaphthalen-1-yl)phenoxy)azetidin-1-yl)cyclohexane-1-carbonyl)-1-oxo-3,5,6,7-tetrahydropyrrolo[3,4-f]isoindol-2(1H)-yl)piperidine-2,6-dione]: less than 10 nM.
`O=C1CCC(N2C(=O)c3cc4c(cc3C2=O)CN(CC2CCN(C(=O)C3CN(c5ccc([C@@H]6c7ccc(O)cc7CC[C@@H]6c6ccccc6)cc5)C3)CC2)C4)C(=O)N1` (stereo partly drawn) [Compound B264, 2-(2,6-dioxopiperidin-3-yl)-6-((1-(1-(4-((1R,2S)-6-hydroxy-2-phenyl-1,2,3,4-tetrahydronaphthalen-1-yl)phenyl)azetidine-3-carbonyl)piperidin-4-yl)methyl)-6,7-dihydropyrrolo[3,4-f]isoindole-1,3(2H,5H)-dione]: the DC50 was greater than 100 nM.
For `CN(C1CCN(c2ccc([C@@H]3c4ccc(O)cc4CC[C@@H]3c3ccccc3)cc2)CC1)C1CC(C(=O)N2Cc3cc4c(cc3C2)C(=O)N(C2CCC(=O)NC2=O)C4=O)C1` (stereo partly drawn) [Compound B111, 2-(2,6-dioxopiperidin-3-yl)-6-(3-((1-(4-((1R,2S)-6-hydroxy-2-phenyl-1,2,3,4-tetrahydronaphthalen-1-yl)phenyl)piperidin-4-yl)(methyl)amino)cyclobutane-1-carbonyl)-6,7-dihydropyrrolo[3,4-f]isoindole-1,3(2H,5H)-dione], the DC50 is greater than 100 nM.
Take `O=C1CCC(N2C(=O)c3cc4c(cc3C2=O)CN(CC2CN(CC3CCN(c5ccc([C@@H]6c7ccc(O)cc7CC[C@@H]6c6ccccc6)cc5)CC3)C2)C4)C(=O)N1` (stereo partly drawn) [Compound B274, 2-(2,6-dioxopiperidin-3-yl)-6-((1-((1-(4-((1R,2S)-6-hydroxy-2-phenyl-1,2,3,4-tetrahydronaphthalen-1-yl)phenyl)piperidin-4-yl)methyl)azetidin-3-yl)methyl)-6,7-dihydropyrrolo[3,4-f]isoindole-1,3(2H,5H)-dione]: the DC50 was greater than 100 nM.
For the compound `O=C1CCC(N2C(=O)c3cc4c(cc3C2=O)CN(CC2CCN(CC3CCN(c5ccc([C@@H]6c7ccc(O)cc7CC[C@@H]6c6ccccc6)cc5)CC3)CC2)C4)C(=O)N1` (stereo partly drawn) [Compound B273, 2-(2,6-dioxopiperidin-3-yl)-6-((1-((1-(4-((1R,2S)-6-hydroxy-2-phenyl-1,2,3,4-tetrahydronaphthalen-1-yl)phenyl)piperidin-4-yl)methyl)piperidin-4-yl)methyl)-6,7-dihydropyrrolo[3,4-f]isoindole-1,3(2H,5H)-dione], the 50% degradation concentration (DC50) was greater than 100 nM.
The same measure for `O=C1CCC(N2C(=O)c3cc4c(cc3C2=O)CN([C@H]2CC[C@H](C(=O)N3CC(Nc5ccc([C@@H]6c7ccc(O)cc7CC[C@@H]6c6ccccc6)cc5)C3)CC2)C4)C(=O)N1` (stereo partly drawn) [Compound B124, 2-(2,6-dioxopiperidin-3-yl)-6-((1S,4r)-4-(3-((4-((1R,2S)-6-hydroxy-2-phenyl-1,2,3,4-tetrahydronaphthalen-1-yl)phenyl)amino)azetidine-1-carbonyl)cyclohexyl)-6,7-dihydropyrrolo[3,4-f]isoindole-1,3(2H,5H)-dione]: greater than 100 nM; for `O=C1CCC(N2C(=O)c3cc4c(cc3C2=O)CN(C2CCN(CC3CCN(c5ccc([C@@H]6c7ccc(O)cc7CC[C@@H]6c6ccc(F)cc6)cc5)CC3)CC2)C4)C(=O)N1` (stereo partly drawn) [Compound B66, 2-(2,6-dioxopiperidin-3-yl)-6-(1-((1-(4-((1R,2S)-2-(4-fluorophenyl)-6-hydroxy-1,2,3,4-tetrahydronaphthalen-1-yl)phenyl)piperidin-4-yl)methyl)piperidin-4-yl)-6,7-dihydropyrrolo[3,4-f]isoindole-1,3(2H,5H)-dione]: 10 to 100 nM.
The same measure for `O=C1CCC(N2C(=O)c3cc4c(cc3C2=O)CCN(CC(=O)N2CC3(CCN(c5ccc([C@@H]6c7ccc(O)cc7CC[C@@H]6c6ccc(F)cc6)cc5)CC3)C2)CC4)C(=O)N1` (stereo partly drawn) [Compound B53, 2-(2,6-dioxopiperidin-3-yl)-7-(2-(7-(4-((1R,2S)-2-(4-fluorophenyl)-6-hydroxy-1,2,3,4-tetrahydronaphthalen-1-yl)phenyl)-2,7-diazaspiro[3.5]nonan-2-yl)-2-oxoethyl)-6,7,8,9-tetrahydroazepino[4,5-f]isoindole-1,3(2H,5H)-dione]: greater than 100 nM; for `O=C1CCC(N2C(=O)c3cc4c(cc3C2=O)CN(C2CN(C(=O)C3CCN(c5ccc([C@@H]6c7ccc(O)cc7CC[C@@H]6c6ccccc6)cc5)CC3)C2)C4)C(=O)N1` (mixture of isomers) [Compound B9, 2-(2,6-dioxopiperidin-3-yl)-6-(1-(1-(4-((1R,2S)-6-hydroxy-2-phenyl-1,2,3,4-tetrahydronaphthalen-1-yl)phenyl)piperidine-4-carbonyl)azetidin-3-yl)-6,7-dihydropyrrolo[3,4-f]isoindole-1,3(2H,5H)-dione]: 10 to 100 nM.
As to `O=C1CCC(N2C(=O)c3cc4c(cc3C2=O)CN(CC2CCC(N3CCN(c5ccc([C@@H]6c7ccc(O)cc7CC[C@@H]6c6ccccc6)cc5)CC3)CC2)C4)C(=O)N1` (stereo partly drawn) [Compound B83, 2-(2,6-dioxopiperidin-3-yl)-6-((4-(4-(4-((1R,2S)-6-hydroxy-2-phenyl-1,2,3,4-tetrahydronaphthalen-1-yl)phenyl)piperazin-1-yl)cyclohcxyl)mcthyl)-6,7-dihydropyrrolo[3,4-f]isoindolc-1,3(2H,5H)-dione], the DC50 is 10 to 100 nM.
For the compound “3-(6-((1R,4r)-4-(3-((4-((1R,2S)-6-hydroxy-2-phenyl-1,2,3,4- tetrahydronaphthalen-1-yl)phenyl)amino)azetidin-1- yl)cyclohexane-1-carbonyl)-1-oxo-3,5,6,7- tetrahydropyrrolo[3,4-f]isoindol-2(1H)-yl)pipcridinc-2,6-dionc [Compound B109]”, the DC50 is less than 10 nM.
The same measure for `O=C1CCC(N2Cc3cc4c(cc3C2=O)CN(C(=O)C2CCC(NC3CN(c5ccc([C@@H]6c7ccc(O)cc7CC[C@@H]6c6ccccc6)cc5)C3)CC2)C4)C(=O)N1` (stereo partly drawn) [Compound B108, 3-(6-(4-((1-(4-((1R,2S)-6-hydroxy-2-phenyl-1,2,3,4-tetrahydronaphthalen-1-yl)phenyl)azetidin-3-yl)amino)cyclohexane-1-carbonyl)-1-oxo-3,5,6,7-tetrahydropyrrolo[3,4-f]isoindol-2(1H)-yl)piperidine-2,6-dione]: 10 to 100 nM.
The same measure for `O=C1CCC(N2C(=O)c3cc4c(cc3C2=O)CN(CC(=O)N2CCC3(CC2)CN(C(=O)c2ccc([C@@H]5c6ccc(O)cc6CC[C@@H]5c5ccccc5)cc2)C3)C4)C(=O)N1` (stereo partly drawn) [Compound B291, 2-(2,6-dioxopiperidin-3-yl)-6-(2-(2-(4-((1R,2S)-6-hydroxy-2-phenyl-1,2,3,4-tetrahydronaphthalen-1-yl)benzoyl)-2,7-diazaspiro[3.5]nonan-7-yl)-2-oxoethyl)-6,7-dihydropyrrolo[3,4-f]isoindole-1,3(2H,5H)-dione]: greater than 100 nM; for `O=C1CCC(N2C(=O)c3cc4c(cc3C2=O)CN(CC2CCN(C(=O)C3(F)CN(c5ccc([C@@H]6c7ccc(O)cc7CC[C@@H]6c6ccccc6)cc5)C3)CC2)C4)C(=O)N1` (stereo partly drawn) [Compound B266, 2-(2,6-dioxopiperidin-3-yl)-6-((1-(3-fluoro-1-(4-((1R,2S)-6-hydroxy-2-phenyl-1,2,3,4-tetrahydronaphthalen-1-yl)phenyl)azetidine-3-carbonyl)piperidin-4-yl)methyl)-6,7-dihydropyrrolo[3,4-f]isoindolc-1,3(2H,5H)-dionc]: greater than 100 nM.
As for `O=C1CCC(N2C(=O)c3cc4c(cc3C2=O)CN(C(=O)CN2CCC3(CC2)CN(c2ccc([C@@H]5c6ccc(O)cc6CC[C@@H]5c5ccccc5)cc2)C3)C4)C(=O)N1` (mixture of isomers) [Compound B29, 2-(2,6-dioxopiperidin-3-yl)-6-(2-(2-(4-((1R,2S)-6-hydroxy-2-phenyl-1,2,3,4-tetrahydronaphthalen-1-yl)phenyl)-2,7-diazaspiro[3.5]nonan-7-yl)acetyl)-6,7-dihydropyrrolo[3,4-f]isoindole-1,3(2H,5H)-dione], the DC50 is greater than 100 nM.
